Measured values taken from patent US7208514B2, “Tumorigenesis inhibitor” (Mitsubishi Pharma Corporation, priority 2003, dated 2007).

Key:
[1] = literature statement; cited from earlier work
[2] = test system: azoxymethane-induced aberrant crypt foci in colon; test: Suppressive effect on the formation of azoxymethane-induced aberrant crypt foci in colon; assay type: in vivo, male ICR mice; settings: for number of colonic ACF / body weight: mean ± standard error; for number of colonic ACF: control 10.3 ± 1.7; for body weight: mixed diet for 5 weeks, azoxymethane-treated mice
[3] = test system: dimethylhydrazine-induced colonic ACF and colonic mucosal cell growth; test: Suppressive effect on the formation of dimethylhydrazine-induced colonic ACF and cancer cell growth; assay type: in vivo, male ICR mice; settings: for number of colonic ACF: mean ± standard error, control 30.7 ± 3.3
[4] = test system: lipid peroxide production in homogenate of the brain; test: Examination of antioxidative effect (thiobarbituric acid reaction product, lipid peroxide, in brain homogenate); assay type: biochemical, Wistar rat
Description: The absorbance of a thiobarbituric acid reaction product (lipid peroxide) generated 1 hr after the incubation was measured.

[5] = Y-700 5-20 mg/kg mixed diet, 5 weeks
[6] = Y-700 10 and 20 mg/kg mixed diet, 10 weeks
[7] = Y-700 mixed diet 10 and 20 mg/kg diet

SMILES: Oc1ncnc2[nH]ncc12 [allopurinol, reference compound]
- radical removing (scavenging) effect [1]: shows a radical removing (scavenging) effect

SMILES: CC(C)(C)COc1ccc(-n2cc(C(=O)O)cn2)cc1C#N [Y-700, 1-(3-cyano-4-neopentyloxyphenyl)pyrazole-4-carboxylic acid]
- radical removing (scavenging) effect [1]: free of radical scavenging effect
- number of colonic ACF ([2]; Y-700 5 mg/kg diet, 5 weeks): 7.0 ± 1.3 n/mice
- body weight ([2]; Y-700 5 mg/kg diet): 40.4 ± 1.2 g
- number of colonic ACF ([2]; Y-700 10 mg/kg diet, 5 weeks): 7.0 ± 0.7 n/mice
- body weight ([2]; Y-700 10 mg/kg diet): 39.9 ± 1.4 g
- number of colonic ACF ([2]; Y-700 15 mg/kg diet, 5 weeks): 6.5 ± 0.6 n/mice
- body weight ([2]; Y-700 15 mg/kg diet): 40.3 ± 0.9 g
- number of colonic ACF ([2]; Y-700 20 mg/kg diet, 5 weeks): 5.5 ± 0.7 n/mice
- body weight ([2]; Y-700 20 mg/kg diet): 39.9 ± 1.0 g
- body weight change attributable to Y-700 administration [2, 5]: nor was observed body weight change
- feed intake [2, 5]: No change
- number of colonic ACF, trend ([2]; Y-700 mixed diet 5-20 mg/kg diet): dose-dependent decreases
- effect on the increase in the number of colonic ACF induced by azoxymethane ([2]; conclusion in words): suppressive effect
- number of colonic ACF ([3]; Y-700 10 mg/kg diet, 10 weeks): 20.7 ± 2.0 n/mouse
- number of colonic ACF ([3]; Y-700 20 mg/kg diet, 10 weeks): 22.9 ± 1.4 n/mouse
- body weight change attributable to Y-700 administration [3, 6]: nor was observed body weight change
- feed intake [3, 6]: No change
- cell growth rate of the surrounding areas, change in words [3, 7]: significant decreases
- number of colonic ACF, change in words [3, 7]: significant decreases
- change in production amount of lipid peroxide attributable to addition of Y-700 ([4]; 0.5-20 μg/ml): No change
- antioxidative effect ([4]; conclusion in words): no antioxidative effect
